For one compound, Kd results are on record in PMC5113906, “Ligand autoradiographical quantification of histamine H3 receptor in human dementia with Lewy bodies” (Pharmacological Research, 2016).

In this experiment the target is T1, histamine H3 receptor (hH3R 445) (Homo sapiens, UniProt Q9Y5N1).
T1 construct: gene HRH3; hH3 445 isoform (also hH3 365), transiently expressed in HEK293 cells
In words: [3H]GSK189254 saturation radioligand binding; autoradiography on human brain sections.

T1 sequence (Q9Y5N1 whole entry, canonical isoform): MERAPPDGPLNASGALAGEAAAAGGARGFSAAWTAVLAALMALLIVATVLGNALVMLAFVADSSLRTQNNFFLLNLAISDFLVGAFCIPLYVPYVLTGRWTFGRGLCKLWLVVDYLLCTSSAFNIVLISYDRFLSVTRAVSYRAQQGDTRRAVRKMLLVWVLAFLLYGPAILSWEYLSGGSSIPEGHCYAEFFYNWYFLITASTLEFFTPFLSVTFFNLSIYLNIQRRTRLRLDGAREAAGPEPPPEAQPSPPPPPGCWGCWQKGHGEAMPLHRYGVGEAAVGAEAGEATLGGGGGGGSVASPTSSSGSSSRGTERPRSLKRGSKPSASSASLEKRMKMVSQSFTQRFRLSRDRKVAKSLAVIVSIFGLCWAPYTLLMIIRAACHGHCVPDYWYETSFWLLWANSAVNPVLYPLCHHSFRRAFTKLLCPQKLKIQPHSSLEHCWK

Consider `CNC(=O)c1ccc(Oc2ccc3c(c2)CCN(C2CCC2)CC3)nc1` [GSK189254], for which the dissociation constant Kd amounted to 0.16 ± 0.04 nM.
